Source: PMC3994528, “GE23077 binds to the RNA polymerase ‘i’ and ‘i+1’ sites and prevents the binding of initiating nucleotides” (eLife, 2014)
Converted amounts (≈) assume the structure as drawn.

Key:
E. coli D21f2tolC = test: Resistance and cross-resistance levels, rpoB mutants from saturation mutagenesis (plasmid-borne), broth microdilution; type: cell-based, Escherichia coli
Human RNAP I / II / III = test: Radiochemical assay with human RNAP I/II/III (HeLa nuclear extract); type: biochemical
Method: Radiochemical assays with human RNAP I/II/III were performed essentially as in [Sawadogo and Roeder (1985)]. Reaction mixtures contained (20 µl): 0–100 µM GE, 8 U HeLaScribe Nuclear Extract (Promega, Madison, WI), 1 µg human placental DNA (Sigma–Aldrich), 400 μM ATP, 400 μM [α^32P]UTP (0.11 Bq/fmol), 400 μM CTP, 400 μM GTP, 50 mM Tris–HCl, pH 8.0, 7 mM HEPES-NaOH, 70 mM (NH4)2SO4, 50 mM KCl, 12 mM MgCl2, 5 mM DTT, 0.1 mM EDTA, 0.08 mM phenylmethylsulfonyl fluoride, and 16% glycerol. Reaction components other than DNA and NTPs were pre-incubated 10 min at 30°C, DNA was added and reaction mixtures were incubated 15 min at 30°C, NTPs were added and reaction mixtures were incubated 60 min at 30°C. Reaction mixtures were spotted on DE81 filter discs (Whatman, Kent, UK; pre-wetted with water) and incubated 1 min at room temperature. Filters were washed with 3 × 3 ml Na2HPO4, 2 × 3 ml water, and 3 ml ethanol, using a filter manifold (Hoefer, Holliston, MA). Filters were placed in scintillation vials containing 10 ml Scintiverse BD Cocktail (Thermo Fisher, Waltham, MA), and radioactivity was quantified by scintillation counting (LS6500; Beckman–Coulter, Brea, CA).
Half-maximal inhibitory concentrations (IC50s) were calculated by non-linear regression in SigmaPlot (SPSS, Chicago, IL).

[1] = molecular target: T1, Thermus thermophilus RNAP (Thermus thermophilus, UniProt Q8RQE8+Q8RQE9); test: biochemical
T1 construct: made in house

E. coli RNAP holoenzyme [2] = molecular target: T2, E. coli RNAP holoenzyme (Escherichia coli, UniProt P0A8T7+P0A8V2); type: biochemical; conditions: 0.5 μM GE or 2.2 μM Rif; lacUV5(ICAP) promoter
[3] = system: Escherichia coli D21f2tolC; test: Antibacterial activity, MIC by broth microdilution; type: cell-based; conditions: starting cell density 3 × 10^4 cfu/ml
From the text: (§1) Minimum inhibitory concentrations (MICs) were quantified using broth microdilution assays ([Clinical and Laboratory Standards Institute, 2009]), using a starting cell density of 3 × 10^4 cfu/ml, LB broth ([Sambrook and Russell, 2001]), and an air atmosphere for E. coli D21f2tolC (tolC:Tn10 rfa lac28 proA23 trp30 his51 rpsL173 ampC tsx81; strain with cell-envelope defects resulting in increased susceptibility to hydrophobic agents, including GE; Fralick and Burns-Keliher, 1994; unpublished data), and using a starting cell density of 3 × 10^4 cfu/ml, Bacto Todd Hewitt broth (TH broth; BD Biosciences, San Jose, CA), and a 7% CO2/6% O2/4% H2/83% N2 atmosphere for S. pyogenes and M. catarrhalis.

[4] = system: Moraxella catarrhalis ATCC 25238; test: Antibacterial activity, MIC by broth microdilution; type: cell-based; conditions: ATCC25238
From the text: as §1

[5] = system: Streptococcus pyogenes ATCC 12344; test: Antibacterial activity, MIC by broth microdilution; type: cell-based; conditions: ATCC12344
From the text: as §1

[Lys684]β-RNAP [6] = molecular target: T3, [Lys684]β-RNAP (Escherichia coli, UniProt P0A8T7+P0A8V2, N684K); test: Fluorescence-detected RNAP-Rif interaction assay, GE-resistant RNAP; type: binding
Method: (§2) RNAP-Rif interaction assays were performed as in [Feklistov et al. (2008)]. The assays monitored the quenching of the fluorescence emission of fluorescein incorporated into RNAP holoenzyme at σ^70 residue 517 (serving as a fluorescence-resonance-energy-transfer donor) by the naphthyl moiety of Rif (serving as a fluorescence-resonance-energy-transfer acceptor; [Knight et al., 2005]; [Feklistov et al., 2008]). Fluorescence measurements were performed using a QuantaMaster QM1 spectrofluorometer (PTI, Edison, NJ) (excitation wavelength = 480 nm; emission wavelength = 530 nm; and excitation and emission slit widths = 5 nm).
(§3) For determination of association kinetics, 720 μl 2 nM [F^517]σ^70-RNAP holoenzyme and 0-2 μM GE in 40 mM Tris–HCl, pH 8.0, 100 mM NaCl, 10 mM MgCl2, 1 mM DTT, 0.02% Tween-20, and 5% glycerol was incubated 15 min at 24°C and then mixed with 30 μl 0.01–0.5 μM Rif in the same buffer at 24°C in a cuvette chamber with a mixing dead time ∼0.5 s, and fluorescence emission intensities were monitored for 30 min at 24°C. […]
(§4) The equilibrium dissociation constant for RNAP-GE interaction, Ki, was calculated from the association-kinetics data, by fitting the GE-concentration-dependence of I∞ to: I∞=(I∞,max[GE])/(Ki+[GE])

[Asp565]β-RNAP = [Asp565]β-RNAP (Escherichia coli, UniProt P0A8T7+P0A8V2, E565D); test: as above; type: binding
Method: as §2, §3, §4

E. coli RNAP holoenzyme [7] = molecular target: T2, E. coli RNAP holoenzyme; type: biochemical; conditions: 0.5 μM GE; T7 A1 promoter
S. pyogenes = test: Resistance levels, chromosomal GE^R mutants, broth microdilution; type: cell-based, Streptococcus pyogenes
E. coli RNAP core enzyme = molecular target: T4, E. coli RNAP core enzyme (Escherichia coli, UniProt P0A8T7+P0A8V2); type: biochemical; conditions: 0.5 μM GE
T4 construct: purchased Epicentre, Madison, WI

[8] = molecular target: T5, E. coli RNAP holoenzyme ([F^517]σ^70-RNAP holoenzyme) (Escherichia coli, UniProt P0A8T7+P0A8V2); test: Fluorescence-detected RNAP-Rif interaction assay; type: binding
T5 construct: made in house
Method: as §2
For determination of association kinetics, 720 μl 2 nM [F^517]σ^70-RNAP holoenzyme and 0-2 μM GE in 40 mM Tris–HCl, pH 8.0, 100 mM NaCl, 10 mM MgCl2, 1 mM DTT, 0.02% Tween-20, and 5% glycerol was incubated 15 min at 24°C and then mixed with 30 μl 0.01–0.5 μM Rif in the same buffer at 24°C in a cuvette chamber with a mixing dead time ∼0.5 s, and fluorescence emission intensities were monitored for 30 min at 24°C. On-rates for RNAP-Rif interaction, kon, were calculated by fitting data to: I=(I0−I∞)exp(−kobst)+I∞ where kobs is the observed association rate constant at a specified Rif concentration, I is the fluorescence emission intensity at time t, Io is the fluorescence emission intensity at t = 0, and I∞ is the fluorescence emission intensity at t = ∞; followed by fitting the Rif-concentration-dependence of kobs to: kobs=kon[Rif]+koff where koff is ≥0 but is otherwise unconstrained.
Off-rates for RNAP-Rif interaction, koff, were calculated as: I=I0+(I∞−I0)[1−exp(−kofft)] where I is the fluorescence emission intensity at time t, Io is the fluorescence intensity at t = 0, and I∞ is the fluorescence intensity at t = ∞.
Equilibrium dissociation constants for RNAP-Rif interaction, Kd, were calculated as koff/kon.
as §4

[Lys684]β-RNAP [9] = molecular target: T3, [Lys684]β-RNAP; test: biochemical; conditions: GE-resistant RNAP [Lys684]β-RNAP
Escherichia coli RNAP = Escherichia coli RNAP (Escherichia coli, UniProt P0A8T7+P0A8V2); test: biochemical; type: biochemical; conditions: wild-type E. coli RNAP
E. coli RNAP holoenzyme [10] = molecular target: T2, E. coli RNAP holoenzyme; type: biochemical; conditions: halted TEC containing 29 nt RNA product
[11] = molecular target: T6, Mycobacterium tuberculosis RNAP (Mycobacterium tuberculosis, UniProt P9WGY7+P9WGY9); test: biochemical
T6 construct: made in house

[12] = molecular target: T7, Staphylococcus aureus RNAP (Staphylococcus aureus, UniProt P47768+Q2G0N5); test: biochemical
T7 construct: made in house

E. coli RNAP holoenzyme [13] = molecular target: T2, E. coli RNAP holoenzyme; type: biochemical; conditions: 0.5 μM GE or 2.2 μM Rif; ApA primer and UTP

T1 sequence (Q8RQE8 whole entry): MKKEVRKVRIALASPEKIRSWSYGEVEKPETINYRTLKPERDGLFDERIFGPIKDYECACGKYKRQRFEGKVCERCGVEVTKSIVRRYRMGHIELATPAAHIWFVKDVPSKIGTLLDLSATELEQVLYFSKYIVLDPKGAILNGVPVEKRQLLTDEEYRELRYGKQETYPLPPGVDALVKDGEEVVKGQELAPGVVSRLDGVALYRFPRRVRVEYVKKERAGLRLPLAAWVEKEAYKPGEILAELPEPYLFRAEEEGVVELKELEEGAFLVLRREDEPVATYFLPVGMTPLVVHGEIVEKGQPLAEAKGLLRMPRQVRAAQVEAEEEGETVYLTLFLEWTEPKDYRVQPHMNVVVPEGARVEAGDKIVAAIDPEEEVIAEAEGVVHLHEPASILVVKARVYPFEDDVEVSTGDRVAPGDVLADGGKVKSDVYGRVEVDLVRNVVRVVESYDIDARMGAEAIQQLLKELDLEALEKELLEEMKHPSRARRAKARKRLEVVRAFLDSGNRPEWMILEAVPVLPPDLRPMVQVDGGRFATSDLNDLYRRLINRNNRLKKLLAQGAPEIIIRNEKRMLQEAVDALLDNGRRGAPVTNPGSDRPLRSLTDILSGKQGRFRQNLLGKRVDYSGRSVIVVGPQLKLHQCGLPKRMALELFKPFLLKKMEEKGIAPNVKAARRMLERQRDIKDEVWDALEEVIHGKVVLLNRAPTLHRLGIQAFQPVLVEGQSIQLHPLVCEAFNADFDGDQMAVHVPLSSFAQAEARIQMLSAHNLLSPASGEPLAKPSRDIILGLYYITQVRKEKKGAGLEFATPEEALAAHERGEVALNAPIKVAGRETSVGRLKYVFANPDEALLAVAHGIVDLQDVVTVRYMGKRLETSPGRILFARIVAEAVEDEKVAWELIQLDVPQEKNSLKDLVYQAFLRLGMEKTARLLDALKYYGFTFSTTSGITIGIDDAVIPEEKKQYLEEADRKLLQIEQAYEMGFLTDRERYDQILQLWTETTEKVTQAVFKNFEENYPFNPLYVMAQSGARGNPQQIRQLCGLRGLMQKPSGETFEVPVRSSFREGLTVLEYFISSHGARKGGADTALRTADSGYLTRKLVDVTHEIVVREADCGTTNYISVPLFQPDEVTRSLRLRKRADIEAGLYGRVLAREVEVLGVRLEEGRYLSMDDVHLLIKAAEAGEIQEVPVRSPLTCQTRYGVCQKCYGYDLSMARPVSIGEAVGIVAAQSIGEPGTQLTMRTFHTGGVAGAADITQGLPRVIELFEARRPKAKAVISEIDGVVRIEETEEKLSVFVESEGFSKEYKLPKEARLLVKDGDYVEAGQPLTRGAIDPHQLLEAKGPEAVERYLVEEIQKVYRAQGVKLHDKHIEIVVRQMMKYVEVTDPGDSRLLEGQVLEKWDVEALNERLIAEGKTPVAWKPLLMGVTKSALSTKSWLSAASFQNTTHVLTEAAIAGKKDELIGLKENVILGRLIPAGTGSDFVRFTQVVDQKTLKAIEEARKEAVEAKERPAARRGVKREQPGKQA
T1 sequence (Q8RQE9 whole entry): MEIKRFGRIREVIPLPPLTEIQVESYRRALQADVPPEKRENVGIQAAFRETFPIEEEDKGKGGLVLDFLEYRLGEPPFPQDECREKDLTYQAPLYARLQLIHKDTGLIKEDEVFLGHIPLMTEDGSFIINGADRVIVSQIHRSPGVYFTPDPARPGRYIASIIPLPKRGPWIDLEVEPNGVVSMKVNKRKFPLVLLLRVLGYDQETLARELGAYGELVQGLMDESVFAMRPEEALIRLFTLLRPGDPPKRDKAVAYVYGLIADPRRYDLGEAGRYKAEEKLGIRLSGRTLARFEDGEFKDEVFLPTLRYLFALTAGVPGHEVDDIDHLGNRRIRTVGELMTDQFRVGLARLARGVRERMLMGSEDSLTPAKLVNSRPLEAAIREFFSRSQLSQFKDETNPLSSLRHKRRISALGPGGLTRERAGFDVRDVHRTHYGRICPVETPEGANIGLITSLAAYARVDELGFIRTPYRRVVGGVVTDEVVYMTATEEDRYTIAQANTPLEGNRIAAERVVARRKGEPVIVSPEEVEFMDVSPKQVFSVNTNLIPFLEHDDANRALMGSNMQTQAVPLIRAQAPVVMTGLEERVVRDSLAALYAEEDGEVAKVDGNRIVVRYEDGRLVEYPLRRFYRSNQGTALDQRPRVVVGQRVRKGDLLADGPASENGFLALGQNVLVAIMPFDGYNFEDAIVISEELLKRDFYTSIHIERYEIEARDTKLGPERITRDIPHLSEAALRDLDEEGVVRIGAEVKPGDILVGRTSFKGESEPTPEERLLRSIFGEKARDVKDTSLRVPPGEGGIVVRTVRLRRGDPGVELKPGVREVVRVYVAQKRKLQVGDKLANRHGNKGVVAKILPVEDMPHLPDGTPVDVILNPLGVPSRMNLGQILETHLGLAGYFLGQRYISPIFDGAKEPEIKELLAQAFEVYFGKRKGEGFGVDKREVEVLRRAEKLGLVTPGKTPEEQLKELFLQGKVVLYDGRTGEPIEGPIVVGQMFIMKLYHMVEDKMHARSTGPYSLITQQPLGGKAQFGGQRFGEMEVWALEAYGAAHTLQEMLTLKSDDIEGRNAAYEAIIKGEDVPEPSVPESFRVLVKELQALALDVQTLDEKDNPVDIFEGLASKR

Compound: CC=C(C)C(=O)NCC1NC(=O)C(C(=O)O)NC(=O)C(O)CNC(=O)C(C(C)O)NC(=O)C(C(O)C(O)C(N)=O)NC(=O)C(C(C)C)NC(=O)C(CO)NC1=O (stereo not shown) [GE, GE23077]
- cross-resistance of Rif^R mutants to GE (E. coli D21f2tolC; Rif^R mutants): do not exhibit cross-resistance
- resistance, fold higher MIC, all six GE^R substitutions (E. coli D21f2tolC; all six GE^R substitutions): ≥ fourfold
- IC50 (Human RNAP I / II / III): > 50000 nM
- IC50 [1]: 20000 nM
- inhibition of formation of RNAP-promoter open complex (RPo) (E. coli RNAP holoenzyme [2]): does not inhibit
- MIC [3]: 250 µg/mL (≈ 311 µM)
- MIC [4]: 25 µg/mL (≈ 31.1 µM)
- MIC [5]: 250 µg/mL (≈ 311 µM)
- Ki ([Lys684]β-RNAP [6]): > 2000 nM
- Ki ([Asp565]β-RNAP): > 2000 nM
- inhibition of first nucleotide addition, de novo transcription initiation (E. coli RNAP holoenzyme [7]): inhibits the first nucleotide-addition step
- resistance level (MIC/MICwild-type) (S. pyogenes; S. pyogenes rpoB 565 [525] Glu→Gly): 32
- resistance level (MIC/MICwild-type) (S. pyogenes; S. pyogenes rpoB 565 [525] Glu→Val): 32
- resistance level (MIC/MICwild-type) (S. pyogenes; S. pyogenes rpoB 681 [643] Met→Lys): 16
- resistance level (MIC/MICwild-type) (S. pyogenes; S. pyogenes rpoB 684 [646] Asn→Ile): >32
- MICwild-type (S. pyogenes; wild-type S. pyogenes): 250 µg/mL
- inhibition of single nucleotide addition, reconstituted elongation complex (E. coli RNAP core enzyme): does not inhibit single nucleotide addition
- MICwild-type: 500 µg/mL
- fold decrease of kon for Rif by GE ([8]; saturating GE): ~20 fold
- fold increase of Kd for Rif by GE ([8]; saturating GE): ~80 fold
- fold increase of koff for Rif by GE ([8]; saturating GE): fourfold
- Ki ([8]; wild-type RNAP, 24°C, read-out: Ki,GE, equilibrium dissociation constant for inhibition of RNAP-Rif interaction by GE): 6 nM
- IC50 ([Lys684]β-RNAP [9]): > 400000 nM
- IC50 (Escherichia coli RNAP): 20 nM
- inhibition of nucleotide addition in transcription elongation, halted elongation complex (E. coli RNAP holoenzyme [10]): does not inhibit transcription elongation
- IC50 [11]: 100 nM
- IC50 [12]: 20 nM
- inhibition of first nucleotide addition, primer-dependent transcription initiation (E. coli RNAP holoenzyme [13]): inhibits the first nucleotide-addition step
